Consider 8 compounds from ChEMBL document CHEMBL1201862, “PubChem BioAssay data set” (2004).

Each structure is given as a SMILES string.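 Five concentrations, 48 hours, 96-well plates. GI50 marks 50% less growth.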 Activity calls are given as the source filed them. Rule as the data show it: active = GI50 up to about 1.1 µM and inactive = higher. Where only a bound is given, the exact number is not on record here.

Common to all, as to assay: inhibition of tumour cell growth, NCI panel, 48 h
The test system of assay [1] is M14.
For assay [2], the system named is SF-268.
The test system of assay [3] is SNB-19.
For assay [4], the system named is OVCAR-4.
In assay [5] the test system is SF-295.
The test system of assay [6] is UACC-62.
For assay [7], the system named is SK-MEL-2.
The test system of assay [8] is A549.
Assay [9] concerns MOLT-4.
In assay [10] the test system is SN12C.
Assay [11] concerns SF-539.
For assay [12], the system named is TK-10.
For assay [13], the system named is Malme-3M.
The subject of assay [14] is ACHN.
Assay [15] relates to RXF 393.
In assay [16] the test system is A498.
For assay [17], the system named is OVCAR-3.
Assay [18] deals with LOX IMVI.
The test system of assay [19] is NCI-H460.
The subject of assay [20] is NCI-H23.

As to `COc1ccc([C@H]2c3cc4c(cc3OC(O)(CO)[C@H]2C(=O)O)OCO4)c(OC)c1.COc1ccc([C@H]2c3cc4c(cc3OC3(O)COC(=O)[C@@H]23)OCO4)c(OC)c1` (stereo not given in full), the GI50 is > 100 µM (inactive) in assay [1]; > 100 µM (inactive) in assay [2]; > 100 µM (inactive) in [3]; > 100 µM (inactive) in [4]; > 100 µM (inactive) in assay [5]; 41.5 µM (inactive) in assay [6]. Besides, the GI50 in assay [7] is > 100 µM (inactive); in [8], > 100 µM (inactive); in assay [9], 61.5 µM (inactive); in assay [10], > 100 µM (inactive); in [11], > 100 µM (inactive); in assay [12], > 100 µM (inactive). For the same compound, the GI50 in [13] is > 100 µM (inactive); in assay [14] it was > 100 µM (inactive); in [15], > 100 µM (inactive); in assay [16], > 100 µM (inactive); in assay [17], > 100 µM (inactive); in assay [18] it was 95.5 µM (inactive). Besides, the GI50 in assay [19] and in assay [20] was > 100 µM (inactive) throughout.

`O=Nn1c2ccccc2c2cc([N+](=O)[O-])ccc21`: the GI50 in assay [1] was 20 µM (inactive); in [2], 12.7 µM (inactive); in [3], 20.7 µM (inactive); in assay [4] it was 16.8 µM (inactive); in assay [5] it was 15.2 µM (inactive); in assay [6] it was 16 µM (inactive). Moreover, the GI50 in assay [7] is 36.3 µM (inactive); in [8], 19.9 µM (inactive); in assay [9], 14.1 µM (inactive); in assay [10] it was 16.8 µM (inactive); in assay [11], 20.3 µM (inactive); in assay [12], 15.4 µM (inactive). The GI50 in assay [13] is 12.9 µM (inactive); in [14], 14.1 µM (inactive); in assay [15] it was 16.4 µM (inactive); in [16], 12.4 µM (inactive); in assay [17], 17.9 µM (inactive); in assay [18], 14.7 µM (inactive). The GI50 in assay [19] is 18 µM (inactive); in assay [20], 17.3 µM (inactive).

Regarding `CC1(C)N=C(c2ccccc2)SC12S[C@@H]1CCCC[C@H]1S2`, the GI50 in assay [1] is > 100 µM (inactive); in assay [2], > 100 µM (inactive); in assay [3], 13.2 µM (inactive); in assay [4], > 100 µM (inactive); in [5], > 100 µM (inactive); in assay [6], > 100 µM (inactive). The GI50 in [7] was > 100 µM (inactive); in assay [8], > 100 µM (inactive); in assay [9] it was 63.8 µM (inactive); in assay [10], > 100 µM (inactive); in assay [11] it was > 100 µM (inactive); in assay [12], > 100 µM (inactive). Besides, the GI50 in [13] was 56.2 µM (inactive); in assay [14] it was > 100 µM (inactive); in [15] it was > 100 µM (inactive); in assay [16] it was 17.9 µM (inactive); in assay [17], > 100 µM (inactive); in assay [18], > 100 µM (inactive). The GI50 was > 100 µM (inactive) in assay [19] and 14.7 µM (inactive) in assay [20].

In the case of `O=C1c2cc3c(cc2CC1Cc1ccc2c(c1)CCC2)CCC3` (stereo not given), the GI50 was > 100 µM (inactive) in [1]; 35.6 µM (inactive) in assay [2]; 34.3 µM (inactive) in assay [3]; 82.6 µM (inactive) in assay [4]; 23.5 µM (inactive) in assay [5]; 52 µM (inactive) in assay [6]. Also, the GI50 in [7] was 48.8 µM (inactive); in assay [8], 64.4 µM (inactive); in assay [9] it was 36.6 µM (inactive); in assay [10] it was 41.4 µM (inactive); in assay [11] it was 33.3 µM (inactive); in [12], > 100 µM (inactive). Besides, the GI50 in assay [13] was 79.6 µM (inactive); in [14], 48.4 µM (inactive); in assay [15], 57.7 µM (inactive); in [16], 32.3 µM (inactive); in [17] it was 63.4 µM (inactive); in [18] it was 66.1 µM (inactive). Besides, the GI50 in assay [19] is 34.4 µM (inactive); in [20], 44.7 µM (inactive).

In the case of `O=S(=O)(C1=CC(S(=O)(=O)c2ccccc2)CN(Cc2ccccc2)C1c1cccc2ccccc12)c1ccccc1` (stereo not given), the GI50 in assay [1], in assay [2], in assay [3], in [4], in assay [5] and in assay [6] was > 69 µM (inactive) each time. The GI50 in assay [7], in [8], in [9], in assay [10], in [11] and in assay [12] was > 69 µM (inactive) in each case. Further, the GI50 is > 69 µM (inactive) in [13]; > 69 µM (inactive) in assay [14]; 25.4 µM (inactive) in [15]; > 69 µM (inactive) in assay [16]; > 69 µM (inactive) in [17]; > 69 µM (inactive) in [18]. Besides, the GI50 in [19] and in assay [20] was > 69 µM (inactive) each time.

In the case of `O=C1Nc2ccccc2N/C1=C\C(=O)C(F)F`, the GI50 in assay [1], in [2], in assay [3], in assay [4], in assay [5] and in [6] was > 100 µM (inactive) throughout. In addition, the GI50 in assay [7], in assay [8], in assay [9], in assay [10], in [11] and in [12] was > 100 µM (inactive) throughout. For the same compound, the GI50 in [13], in [14], in assay [15], in assay [16], in assay [17] and in [18] was > 100 µM (inactive) in each case. Also, the GI50 in assay [19] and in assay [20] was > 100 µM (inactive) throughout.

As for `CNC(=O)OC(C)CN1c2ccccc2Sc2ccc(Cl)cc21` (stereo not given), the GI50 in [1], in [2], in assay [3], in [4], in assay [5] and in assay [6] was > 10 µM (inactive) each time. Moreover, the GI50 in assay [7], in [8], in assay [9], in assay [10], in assay [11] and in assay [12] was > 10 µM (inactive) in each case. Also, the GI50 in assay [13], in assay [14], in [15], in assay [16], in assay [17] and in assay [18] was > 10 µM (inactive) throughout. Also, the GI50 in [19] and in assay [20] was > 10 µM (inactive) in each case.

Take `CCC(=C/[C@H](C)C/C=C/C(C)=C/[C@@H](C)C(=O)[C@@H](C)[C@H](O)[C@@H](C)CC)/C=C/[C@H]1CC=CC(=O)O1` [CALLYSTATIN A]: the GI50 in [1], in assay [2], in assay [3], in assay [4], in assay [5] and in assay [6] was < 0.0012 µM (active) each time. The GI50 is < 0.0012 µM (active) in [7]; < 0.0012 µM (active) in assay [8]; 0.0887 µM (active) in assay [9]; < 0.0012 µM (active) in [10]; < 0.0012 µM (active) in assay [11]; < 0.0012 µM (active) in assay [12]. The GI50 in assay [13], in assay [14], in assay [15], in assay [16], in assay [17] and in assay [18] was < 0.0012 µM (active) throughout. The GI50 in [19] and in [20] was < 0.0012 µM (active) throughout.
